{
  "source": "patent US20250176602A1",
  "about": "“Composition for Proliferation of Bacteroides uniformis in the Intestinal Tract” (Asahi Group Holdings, Ltd., priority 2019, published 2025)",
  "key": {"[1]": {"experiment": "Fatigue feeling mitigation test, VAS questionnaire after Aerobike exercise loading (Example 2)", "assay_type": "in vivo, human", "protocol": "(§1) As test subjects, 21 healthy males at the ages of 20 to 49 who have exercise habits of conducting exercise with an intensity of 5 METs or more for 30 minutes or more once or twice a week and who can continue the exercise habits during the test period as well were selected.\n(§2) Among the 21 test subjects, 10 test subjects were selected as an α-cyclodextrin (αCD) intake group, and the remaining 11 test subjects were selected as a placebo group. The test subjects themselves were not informed who belonged to which group.\n(§3) Test Supplements (tablets) having compositions described in Table 1 below were used. One tablet of the test supplements was of about 250 mg.\n(§4) Each test subject of the αCD intake group and the placebo group was asked to take in 3 tablets of the above test supplements once a day at any timing. That is, each test subject of the α-cyclodextrin intake group was asked to take in about 200 mg of α-cyclodextrin per day.\nThe intake period for the test supplements was set to 9 weeks, and change in gut flora was evaluated, a questionnaire on fatigue feeling was conducted, and change in travel time was evaluated, before the start of the intake, after 4-week intake, and after 8-week intake. Note that foods and beverages that are said to support sports and training, pharmaceutical products and quasi-pharmaceutical products that have recovery, prevention or amelioration of “fatigue”, “tiredness”, “physical strength” and/or “lassitude” as the indication and effects, as well as supplements in general (also including foods with functional claims and foods for specified health use) were prohibited to take in for 1 week counted from the date when the test subjects agreed to participate in the test and during the test period.\nThe test subjects were subjected to exercise loading (load intensity: at an intensity of 45% of the maximum exercise loading intensity of each test subject for 50 minutes) using Aerobike (trade mark) (manufactured by KONAMI Sports & Life Col., Ltd., model number AEROBIKE-75XLIII), before intake of the test supplements, after 4-week intake, and after 8-week intake. […] Regarding fatigue, a VAS (Visual Analogue Scale) questionnaire was conducted based on the VAS testing method for fatigue feeling established by Japanese Society of Fatigue Science, immediately after loading, 30 minutes after loading, and 60 minutes after loading, to investigate change in fatigue feeling with time. The items of the questionnaire were “general fatigue feeling”, “fatigue feeling of the legs”, “tension of the legs”, “general lassitude”, and “difficulty in breathing”, and the “best state (0 mm)” and the “worst state (100 mm)” in each item were based on criteria shown in Table 2. In each intake group, the amounts of change in measured value were evaluated after 4-week intake and after 8-week intake based on the measured value before intake. […] The significant test between the placebo group and the α-cyclodextrin (αCD) intake group for the general fatigue feeling was conducted by Student's t-test, and the result of the test was summarized as a graph in FIG. 2 (*: p<0.05). In addition, the results for the items “fatigue feeling of the legs”, “tension of the legs”, “general lassitude”, and “difficulty in breathing” were summarized in Table 3. In Table 3, the significant difference was studied by paired t-test for a comparison with before intake of αCD, and the significant test between the placebo group and the α-cyclodextrin (αCD) intake group was conducted by Student's t-test."}, "[2]": {"experiment": "Exercise performance test, 10 km SPIN CYCLE travel time (Example 3)", "assay_type": "in vivo, human", "conditions": "about 200 mg/day", "protocol": "as §1, §2, §3, §4\nThe intake period for the test supplements was set to 9 weeks, and change in gut flora was evaluated, a questionnaire on fatigue feeling was conducted, and change in travel time was evaluated, before the start of the intake, after 4-week intake, and after 8-week intake. […]"}, "[3]": {"conditions": "30 minutes after exercise, after 4-week intake, about 200 mg/day"}, "[4]": {"conditions": "30 minutes after exercise, after 8-week intake, about 200 mg/day"}, "[5]": {"conditions": "30 minutes after exercise, before intake"}, "[6]": {"conditions": "60 minutes after exercise, after 4-week intake, about 200 mg/day"}, "[7]": {"conditions": "60 minutes after exercise, after 8-week intake, about 200 mg/day"}, "[8]": {"conditions": "60 minutes after exercise, before intake"}, "[9]": {"conditions": "immediately after exercise, after 4-week intake, about 200 mg/day"}, "[10]": {"conditions": "immediately after exercise, after 8-week intake, about 200 mg/day"}, "[11]": {"conditions": "immediately after exercise, before intake"}},
  "data": [
    {"compound": "OC[C@H]1O[C@@H]2O[C@H]3[C@H](O)[C@@H](O)[C@@H](O[C@H]4[C@H](O)[C@@H](O)[C@@H](O[C@H]5[C@H](O)[C@@H](O)[C@@H](O[C@H]6[C@H](O)[C@@H](O)[C@@H](O[C@H]7[C@H](O)[C@@H](O)[C@@H](O[C@H]1[C@H](O)[C@H]2O)O[C@@H]7CO)O[C@@H]6CO)O[C@@H]5CO)O[C@@H]4CO)O[C@@H]3CO", "note": "[α-cyclodextrin]", "values": [
      {"measurement": "VAS Difficulty in breathing", "setting": "[1]; [3]", "result": "17.727 ± 15.300", "unit": "mm"},
      {"measurement": "VAS Fatigue feeling of the legs", "setting": "[1]; [3]", "result": "38.002 ± 21.474", "unit": "mm"},
      {"measurement": "VAS General lassitude", "setting": "[1]; [3]", "result": "27.436 ± 16.724 * mm"},
      {"measurement": "VAS Tension of the legs", "setting": "[1]; [3]", "result": "38.015 ± 21.098", "unit": "mm"},
      {"measurement": "VAS Difficulty in breathing", "setting": "[1]; [4]", "result": "16.498 ± 18.581 * mm"},
      {"measurement": "VAS Fatigue feeling of the legs", "setting": "[1]; [4]", "result": "28.636 ± 21.115 ** mm"},
      {"measurement": "VAS General lassitude", "setting": "[1]; [4]", "result": "24.728 ± 21.853 * mm"},
      {"measurement": "VAS Tension of the legs", "setting": "[1]; [4]", "result": "26.662 ± 21.491 ** mm"},
      {"measurement": "VAS Difficulty in breathing", "setting": "[1]; [5]", "result": "22.702 ± 23.028", "unit": "mm"},
      {"measurement": "VAS Fatigue feeling of the legs", "setting": "[1]; [5]", "result": "42.045 ± 25.730", "unit": "mm"},
      {"measurement": "VAS General lassitude", "setting": "[1]; [5]", "result": "39.689 ± 21.542", "unit": "mm"},
      {"measurement": "VAS Tension of the legs", "setting": "[1]; [5]", "result": "41.674 ± 26.128", "unit": "mm"},
      {"measurement": "VAS Difficulty in breathing", "setting": "[1]; [6]", "result": "16.907 ± 16.405", "unit": "mm"},
      {"measurement": "VAS Fatigue feeling of the legs", "setting": "[1]; [6]", "result": "31.167 ± 20.034", "unit": "mm"},
      {"measurement": "VAS General lassitude", "setting": "[1]; [6]", "result": "20.932 ± 16.099", "unit": "mm"},
      {"measurement": "VAS Tension of the legs", "setting": "[1]; [6]", "result": "29.904 ± 19.297", "unit": "mm"},
      {"measurement": "VAS Difficulty in breathing", "setting": "[1]; [7]", "result": "12.228 ± 15.335", "unit": "mm"},
      {"measurement": "VAS Fatigue feeling of the legs", "setting": "[1]; [7]", "result": "22.603 ± 21.310 * mm"},
      {"measurement": "VAS General lassitude", "setting": "[1]; [7]", "result": "17.754 ± 19.279 * mm"},
      {"measurement": "VAS Tension of the legs", "setting": "[1]; [7]", "result": "22.193 ± 22.240", "unit": "mm"},
      {"measurement": "VAS Difficulty in breathing", "setting": "[1]; [8]", "result": "16.882 ± 18.668", "unit": "mm"},
      {"measurement": "VAS Fatigue feeling of the legs", "setting": "[1]; [8]", "result": "34.945 ± 26.504", "unit": "mm"},
      {"measurement": "VAS General lassitude", "setting": "[1]; [8]", "result": "30.096 ± 20.702", "unit": "mm"},
      {"measurement": "VAS Tension of the legs", "setting": "[1]; [8]", "result": "33.394 ± 26.250", "unit": "mm"},
      {"measurement": "general fatigue feeling after the exercise (VAS), change vs before intake, compared with placebo group", "setting": "[1]; about 200 mg/day, after 4-week and 8-week intake, p<0.05", "result": "significantly decreased"},
      {"measurement": "VAS Difficulty in breathing", "setting": "[1]; [9]", "result": "30.597 ± 21.390 * mm"},
      {"measurement": "VAS Fatigue feeling of the legs", "setting": "[1]; [9]", "result": "60.911 ± 21.493", "unit": "mm"},
      {"measurement": "VAS General lassitude", "setting": "[1]; [9]", "result": "41.464 ± 17.587", "unit": "mm"},
      {"measurement": "VAS Tension of the legs", "setting": "[1]; [9]", "result": "58.542 ± 25.137", "unit": "mm"},
      {"measurement": "VAS Difficulty in breathing", "setting": "[1]; [10]", "result": "29.033 ± 20.173 ** mm"},
      {"measurement": "VAS Fatigue feeling of the legs", "setting": "[1]; [10]", "result": "54.009 ± 23.092", "unit": "mm"},
      {"measurement": "VAS General lassitude", "setting": "[1]; [10]", "result": "39.053 ± 21.314 * mm"},
      {"measurement": "VAS Tension of the legs", "setting": "[1]; [10]", "result": "55.137 ± 24.253", "unit": "mm"},
      {"measurement": "VAS Difficulty in breathing", "setting": "[1]; [11]", "result": "44.516 ± 19.027", "unit": "mm"},
      {"measurement": "VAS Fatigue feeling of the legs", "setting": "[1]; [11]", "result": "53.304 ± 25.421", "unit": "mm"},
      {"measurement": "VAS General lassitude", "setting": "[1]; [11]", "result": "51.306 ± 20.273", "unit": "mm"},
      {"measurement": "VAS Tension of the legs", "setting": "[1]; [11]", "result": "59.341 ± 24.644", "unit": "mm"},
      {"measurement": "travel time for 10 km", "setting": "[2]; after 4-week intake, compared with same group before intake", "result": "significantly shortened"},
      {"measurement": "travel time for 10 km", "setting": "[2]; after 8-week intake, compared with same group before intake and placebo group after 8-week intake", "result": "significantly shortened"}
    ]}
  ]
}
